Active and inactive are the calls of the source. The calls are words filed in the database; no cut-off is given here.
Columns and labels:
Type in all cases: functional, cell-based
HeLa [1] = experiment: Induction of autophagy in human HeLa cells in presence of NAC by MDC staining-based flow cytometry
HeLa [2] = experiment: Upregulation of beclin 1 in human HeLa cells at 5 to 20 uM after 24 hrs in presence of 3MA by Western blot analysis
HeLa [3] = experiment: Upregulation of caspase-3 in human HeLa cells at 5 to 20 uM after 24 hrs by Western blot analysis
HeLa [4] = experiment: Upregulation of FADD in human HeLa cells at 5 to 20 uM after 24 hrs by Western blot analysis
HeLa [5] = experiment: Induction of apoptosis in human HeLa cells assessed as increase in Bax/Bcl-2 ratio at 5 to 20 uM after 24 hrs by Western blot analysis
HeLa [6] = experiment: Induction of ROS generation in human HeLa cells at 10 to 20 uM after 24 hrs by H2DCF-DA staining-based flow cytometry
HeLa [7] = experiment: Induction of autophagy in human HeLa cells at 10 uM after 24 hrs by MDC staining-based fluorescence microscopic analysis
HeLa [8] = experiment: Induction of apoptosis in human HeLa cells assessed as increase in subG0/G1 ratio preincubated with 3MA for 1 hr followed by compound treatment at 10 uM for 24 hrs by PI staining-based flow cytometry
HeLa [9] = experiment: Induction of apoptosis in human HeLa cells assessed as increase in subG0/G1 ratio in presence of NAC by PI staining-based flow cytometry
HeLa [10] = experiment: Induction of apoptosis in human HeLa cells assessed as reduction in mitochondrial membrane potential at 5 to 20 uM after 24 hrs by Rhodamine123 staining-based flow cytometry
HeLa [11] = experiment: Upregulation of beclin 1 in human HeLa cells at 5 to 20 uM after 24 hrs by Western blot analysis
HeLa [12] = experiment: Induction of autophagy in human HeLa cells assessed as conversion of LC3 1 to LC3 2 at 5 to 20 uM after 24 hrs by Western blot analysis
HeLa [13] = experiment: Cytotoxicity against human HeLa cells assessed as inhibition of cell growth after 12 to 48 hrs by MTT assay
HeLa [14] = experiment: Induction of apoptosis in human HeLa cells assessed as chromatin condensation at 10 uM after 24 hrs by AO staining-based microscopic analysis
HeLa [15] = experiment: Induction of autophagy in human HeLa cells after 24 hrs in presence of 3MA by MDC staining-based flow cytometry
HeLa [16] = experiment: Cytotoxicity against human HeLa cells assessed as inhibition of cell growth after 24 hrs in presence of 3MA by MTT assay
HeLa [17] = experiment: Upregulation of caspase-8 in human HeLa cells at 5 to 20 uM after 24 hrs by Western blot analysis
HeLa [18] = experiment: Upregulation of Fas in human HeLa cells at 5 to 20 uM after 24 hrs by Western blot analysis
HeLa [19] = experiment: Induction of ROS generation in human HeLa cells at up to 5 uM after 24 hrs by H2DCF-DA staining-based flow cytometry
HeLa [20] = experiment: Induction of apoptosis in human HeLa cells assessed as formation of apoptotic bodies at 10 uM after 24 hrs by phase contrast microscopic analysis
HeLa [21] = experiment: Induction of ROS generation in human HeLa cells at 10 uM in presence of NAC by H2DCF-DA staining-based flow cytometry
HeLa [22] = experiment: Induction of apoptosis in human HeLa cells assessed as increase in subG0/G1 ratio at 10 uM after 24 hrs in presence of ZVAD by PI staining-based flow cytometry
HeLa [23] = experiment: Induction of autophagy in human HeLa cells after 24 hrs by MDC staining-based flow cytometry
HeLa [24] = experiment: Induction of apoptosis in human HeLa cells assessed as increase in subG0/G1 ratio after 24 hrs by PI staining-based flow cytometry
HeLa [25] = experiment: Induction of apoptosis in human HeLa cells assessed as nuclear fragmentation at 10 uM after 24 hrs by AO staining-based microscopic analysis
HeLa [26] = experiment: Cytotoxicity against human HeLa cells assessed as inhibition of cell growth at 5 to 20 uM by MTT assay; conditions: TDE = time-dependent effect
HeLa [27] = experiment: Induction of autophagy in human HeLa cells preincubated at 10 uM in presence of ZVAD for 24 hrs by MDC staining-based flow cytometry
HeLa [28] = experiment: Induction ROS generation in human HeLa cells in presence of 3MA by flow cytometry
HeLa [29] = experiment: Induction of apoptosis in human HeLa cells assessed as increase in cytochrome c release from mitochondria to cytosol at 5 to 20 uM after 24 hrs by Western blot analysis
HeLa [30] = experiment: Induction ROS generation in human HeLa cells in presence of ZVAD by flow cytometry
HeLa [31] = experiment: Induction of autophagy in human HeLa cells assessed as conversion of LC3 1 to LC3 2 at 5 to 20 uM after 24 hrs in presence of 3MA by Western blot analysis
HeLa [32] = experiment: Upregulation of FasL in human HeLa cells at 5 to 20 uM after 24 hrs by Western blot analysis

With `COc1ccc(-c2nc3cc(Oc4ccc5[nH]c(-c6ccc(OC)cc6)nc5c4)ccc3[nH]2)cc1` the Activity (HeLa [1]) was “inactive”, the Activity (HeLa [2]) was “inactive” and the Activity (HeLa [3]) was “Active”. For the same compound, the Activity (HeLa [4]) was “Active”, the Activity (HeLa [5]) was “Active” and the Activity (HeLa [6]) was “inactive”. For the same compound, the Activity (HeLa [7]) was “Active”, the Activity (HeLa [8]) was “inactive” and the Activity (HeLa [9]) was “inactive”. For the same compound, the Activity (HeLa [10]) was “Active”, the Activity (HeLa [11]) was “Active” and the Activity (HeLa [12]) was “Active”. The Activity (HeLa [13]) was “Dose-dependent effect”, the Activity (HeLa [14]) was “Active” and the Activity (HeLa [15]) was “inactive”. The Activity (HeLa [16]) was “inactive”, the Activity (HeLa [17]) was “Active” and the Activity (HeLa [18]) was “Active”. The Activity (HeLa [19]) was “Active”, the Activity (HeLa [20]) was “Active” and the Activity (HeLa [21]) was “inactive”. The Activity (HeLa [22]) was “inactive”, the Activity (HeLa [23]) was “Dose-dependent effect” and the Activity (HeLa [24]) was “Dose-dependent effect”. For the same compound, the Activity (HeLa [25]) was “Active”, the inhibition (HeLa [26]) was “Tde” and the Activity (HeLa [27]) was “Active”. The Activity (HeLa [28]) was “inactive”, the Activity (HeLa [29]) was “Active” and the Activity (HeLa [30]) was “inactive”. For the same compound, the Activity (HeLa [31]) was “inactive” and the Activity (HeLa [32]) was “Active”.

Reference: ChEMBL document CHEMBL4477256, “Newly synthesized bis-benzimidazole compound 8 induces apoptosis, autophagy and reactive oxygen species generation in HeLa cells” (Bioorg Med Chem Lett, 2016)
